Assay results reported in the supplement of paper PMC10307832.

What was measured:
Test in all cases: relative viability (nuclei count vs DMSO), 5 days (fraction); higher = more cells survive
[1] = compound: O=c1[nH]cc(F)c(=O)[nH]1 [5-Fluorouracil] + O=C(CCCCCCC(=O)Nc1ccccc1)NO [Vorinostat] (partner 1 µM)
How it was run: (§1)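 One day after seeding in 1536-well plates, lung cancer cell lines were dosed by pin tool. Dosing was either single-drug or a fixed anchor-drug dose plus five library-drug doses (not always all listed) in √10 steps. After 5 days, nuclei were stained in one fix-and-stain step and counted on 4× images, and relative viability is the nuclei count of treated wells over that of vehicle wells, given as the median of duplicate plates.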

[2] = compound: O=c1[nH]cc(F)c(=O)[nH]1 [5-Fluorouracil] + Nc1ncn([C@H]2C[C@H](O)[C@@H](CO)O2)c(=O)n1 [Decitabine] (partner 2 µM)
How it was run: as §1

[3] = compound: CN[C@@H]1C[C@H]2O[C@@](C)([C@@H]1OC)n1c3ccccc3c3c4c(c5c6ccccc6n2c5c31)C(=O)NC4 [Staurosporine] + CC1(C)CCC(c2ccc(Cl)cc2)=C(CN2CCN(c3ccc(C(=O)NS(=O)(=O)c4ccc(N[C@H](CCN5CCOCC5)CSc5ccccc5)c(S(=O)(=O)C(F)(F)F)c4)cc3)CC2)C1 [Navitoclax] (partner 0.5 µM)
How it was run: as §1

5-Fluorouracil + AZD7762 = compound: O=c1[nH]cc(F)c(=O)[nH]1 [5-Fluorouracil] + NC(=O)Nc1cc(-c2cccc(F)c2)sc1C(=O)N[C@H]1CCCNC1 [AZD7762] (partner 0.2 µM)
How it was run: as §1

Cell Line | relative viability ([1]; first compound 0.02 µM) | relative viability ([1]; first compound 0.2 µM) | relative viability ([1]; first compound 0.6325 µM) | relative viability ([1]; first compound 2 µM) | relative viability ([2]; first compound 0.02 µM) | relative viability ([2]; first compound 0.2 µM) | relative viability ([2]; first compound 0.6325 µM) | relative viability ([2]; first compound 2 µM) | relative viability ([3]; first compound 0.005 µM) | relative viability ([3]; first compound 0.05 µM) | relative viability ([3]; first compound 0.1581 µM) | relative viability ([3]; first compound 0.5 µM) | relative viability (5-Fluorouracil + AZD7762; first compound 0.02 µM) | relative viability (5-Fluorouracil + AZD7762; first compound 0.2 µM) | relative viability (5-Fluorouracil + AZD7762; first compound 0.6325 µM) | relative viability (5-Fluorouracil + AZD7762; first compound 2 µM) | relative viability ([3]; first compound 0.01581 µM)
HCC-827 | 0.556 | 0.697 | 0.348 | 0.272 | 0.298 | 0.431 | 0.36 | 0.297 | 1.06 | 0.768 | 0.725 | 0.488 | 0.164 | 0.178 | 0.166 | 0.147 | –
EMC-BAC-2 | 0.448 | 0.566 | 0.463 | 0.226 | 1.01 | 1.08 | 0.97 | 1.01 | 1.1 | 0.172 | 0.153 | 0.127 | 1.14 | 1.22 | 1.11 | 1.01 | 0.777
NCI-H647 | 0.432 | 0.593 | 0.48 | 0.187 | 0.367 | 0.383 | 0.39 | 0.391 | 0.728 | 0.291 | 0.0554 | 0.0386 | 0.448 | 0.588 | 0.402 | 0.333 | 0.142
NCI-H1792 | – | – | – | – | 0.514 | 0.473 | 0.27 | 0.202 | 0.735 | 0.197 | – | 0.136 | 0.641 | 0.303 | 0.213 | 0.218 | 0.473
NCI-H2009 | 0.75 | 0.825 | 0.753 | 0.396 | 0.384 | 0.404 | 0.372 | 0.425 | 0.42 | 0.189 | 0.19 | 0.0825 | – | – | – | – | 0.38
NCI-H2347 | 0.64 | 0.41 | 0.41 | 0.431 | 0.587 | 0.618 | 0.441 | 0.407 | 0.854 | 0.274 | 0.284 | 0.225 | 0.63 | 0.45 | 0.339 | 0.343 | 0.524
NCI-H522 | 0.884 | 1.02 | 0.982 | 0.81 | 0.642 | 0.58 | 0.622 | 0.722 | – | – | – | – | 0.948 | 0.98 | 0.755 | 0.916 | –
NCI-H1437 | 0.441 | 0.301 | 0.252 | 0.253 | 0.522 | 0.308 | 0.28 | 0.237 | 0.982 | 0.695 | 0.189 | 0.101 | 0.34 | 0.199 | 0.17 | 0.116 | 0.865
SK-MES-1 | 1.2 | 0.404 | 0.306 | 0.302 | 0.339 | 0.352 | 0.323 | 0.294 | 0.925 | 0.28 | 0.173 | 0.134 | – | – | – | – | 0.329
NCI-H3122 | 0.985 | 0.867 | 0.392 | – | 0.432 | 0.447 | 0.304 | 0.214 | 1.04 | 0.993 | 0.672 | 0.223 | 0.959 | 0.856 | 0.197 | 0.143 | 0.46
NCI-H1299 | – | – | – | – | – | – | – | – | 1.06 | 0.459 | 0.239 | 0.199 | – | – | – | – | 0.739
NCI-H1650 | 0.552 | 0.386 | 0.329 | 0.198 | 0.573 | 0.473 | 0.348 | 0.271 | 0.63 | 0.29 | 0.192 | 0.116 | – | – | – | – | 0.493
NCI-H650 | 0.414 | 0.309 | 0.264 | 0.251 | 0.313 | 0.312 | 0.326 | 0.288 | – | – | – | – | 0.883 | 0.464 | 0.328 | 0.422 | –
Calu-6 | – | – | – | – | – | – | – | – | 0.656 | 0.233 | 0.0847 | 0.0708 | – | – | – | – | 0.321
NCI-H661 | 0.835 | 0.818 | 0.786 | 0.809 | 0.574 | 0.596 | 0.495 | 0.551 | – | – | – | – | – | – | – | – | –
EBC-1 | – | – | – | – | – | – | – | – | 0.252 | 0.118 | 0.11 | 0.094 | – | – | – | – | 0.129
NCI-H1648 | 0.482 | 0.389 | 0.495 | 0.263 | 0.541 | 0.528 | 0.47 | 0.371 | – | – | – | – | 0.582 | 0.831 | 0.493 | 0.435 | –
COR-L23 | 0.455 | 0.372 | 0.239 | 0.159 | 0.452 | 0.449 | 0.412 | 0.254 | 0.511 | 0.17 | 0.0578 | 0.0582 | – | – | – | – | 0.3
NCI-H1703 | – | – | – | – | – | – | – | – | 0.293 | 0.143 | 0.132 | 0.0869 | 0.103 | 0.072 | 0.118 | 0.118 | 0.207
SW 1573 | 0.873 | 0.843 | 0.778 | 0.466 | 0.619 | 0.505 | 0.53 | 0.502 | 0.898 | 0.193 | 0.0915 | 0.0731 | – | – | – | – | 0.297
SK-LU-1 | 0.705 | 0.885 | 0.744 | 0.681 | 0.636 | 0.692 | 0.592 | 0.548 | 0.323 | 0.131 | 0.151 | 0.059 | – | – | – | – | 0.115
SW 900 | 0.628 | 0.575 | 0.562 | 0.4 | 0.415 | 0.362 | 0.407 | 0.431 | – | – | – | – | 0.739 | 0.695 | 0.543 | 0.398 | –
NCI-H2342 | 0.903 | 0.86 | 0.741 | 0.616 | 0.726 | 0.682 | 0.698 | 0.739 | – | – | – | – | 0.473 | 0.622 | 0.557 | 0.546 | –
A549 | – | – | – | – | 0.296 | 0.264 | 0.252 | 0.224 | 0.616 | 0.123 | 0.0294 | 0.0297 | – | – | – | – | 0.385
NCI-H520 | 0.673 | 0.681 | 0.528 | 0.394 | 0.505 | 0.556 | 0.479 | 0.552 | 1.15 | 0.408 | 0.204 | 0.13 | – | – | – | – | 0.935
LCLC-103H | 0.808 | 0.829 | 0.673 | 0.469 | 0.734 | 0.636 | 0.652 | 0.524 | – | – | – | – | 0.734 | 0.758 | 0.546 | 0.381 | –
